In patent publication US20120308567A1, “USE OF TYROSINE KINASE INHIBITORS FOR TREATMENT OF PROLACTINOMA” (CEDARS-SINAI MEDICAL CENTER, priority 2010, published 2012):

Experiments:
human prolactinoma cells = test: Realtime PCR of PRL in primary human prolactinoma cell cultures; assay type: cell-based; conditions: Tumor B; 0.1-5 μM, 24 hr, in the absence of added EGF
Protocol: A, B, D, and E. After trans-sphenoidal surgery of human prolactinomas, tumor cells were cultured. […] PRL levels in culture media were measured using RIA (B). H&E and PRL staining of tumor and confocal immunocytochemistry of EGFR and HER2 (Tumor A) (C), or for Tumor B (F). Magnification of these figures was 100×. […] PRL levels in culture media were measured using RIA (E). Prolactinoma cells (Tumor B) were treated with U0126 (0.1-5 μM) for 24 hr, and Realtime PCR of PRL performed (G).
Total RNA was extracted with Trizol reagent (Invitrogen) according to instructions of the manufacturer. The amount and the integrity of RNA were assessed by measurement of absorbance at 260 and 280 nm. Total RNA was reverse-transcribed into first-strand cDNA using iScript cDNA synthesis kit (Bio-Rad Laboratories, Inc.) according to the manufacturer. Quantitative PCR reactions were carried out in the iQ5 Multicolor Real-time PCR Detection System (Bio-Rad Laboratories, Inc.) as described (8). Certified RT^2 primer assays for rat GH, PRL and human PRL were purchased from SuperArray. Primer sequences (Invitrogen) were 5′-[…]-3′ (18S rRNA forward (F)), 5′-[…]-3′ (18S rRNA reverse (R)), 5′-[…]-3′ (human (3-actin F), 5′-[…]-3′ (human (3-actin R), 5′-[…]-3′ (human GAPDH F), 5′-[…]-3′ (human GAPDH R).
Human prolactinoma tissues were obtained at the time of surgery (Pituitary Center, Cedars-Sinai Medical Center) and transferred in 0.3% BSA containing DMEM according to an IRB-approved protocol. After washing with medium, tumor tissues were chopped with a sterile scalpel into approximately 1-2 mm pieces. Tissues were rinsed and digested with DMEM containing 0.3% BSA, 0.35% collagenase, and 0.15% hyaluronidase at 37° C. for 30 min The mixture was centrifuged at 1,500 rpm for 5 min at 4° C., and the cell pellet resuspended in an appropriate volume of culture medium containing 10% FBS and antibiotics in 48 well plates. After 24 hr incubation with serum depleted starvation medium (DMEM with 0.3% BSA), treatment agents were added with fresh serum-depleted medium (0.3% BSA), and medium collected for RIA. RNA was extracted after 24 hr treatment. Medium was also collected at baseline. To normalize for cell number effect, the PRL value of treated medium was divided by that of pre-treatment starvation medium to obtain a treated value for each well (n=4).

[1] = test system: GH3 cells stably expressing HER2CA; test: Realtime PCR of PRL and GH mRNA in GH3 stable transfectants; assay type: cell-based, rat; conditions: each respective transfectant (pcDNA3, HER2CA); 5 nM EGF or 6 nM HRG
Protocol: A. […] C. GH and PRL secretion in the culture medium determined by RIA. Hormone secretion levels were normalized for cell numbers, Values are mean±SEM. *p<0.05, **p<0.01. […] GH3 rat lacto-somatotroph tumor cells secreting PRL and GH were purchased from the American Type Culture Collection. HER2CA cells were generated by transfection with […]) purchased from Addgene (Addgene plasmid 16259). Stable colonies were selected in the presence of 500 μg/ml G418 (Invitrogen). A vector control cell line pcDNA3 was simultaneously established by transfecting pcDNA3 that lacked inserted cDNA. […] After synchronization by serum starvation (medium containing 0.2% bovine serum albumin for 24 h), cells with treatment agents was grown in fresh serum-depleted medium (0.2% bovine serum albumin), and samples collected at the indicated times. Total RNA was extracted with Trizol reagent (Invitrogen) according to instructions of the manufacturer. The amount and the integrity of RNA were assessed by measurement of absorbance at 260 and 280 nm. Total RNA was reverse-transcribed into first-strand cDNA using iScript cDNA synthesis kit (Bio-Rad Laboratories, Inc.) according to the manufacturer. Quantitative PCR reactions were carried out in the iQ5 Multicolor Real-time PCR Detection System (Bio-Rad Laboratories, Inc.) as described (8). […] Primer sequences (Invitrogen) were [NT] rRNA forward ([…] rRNA reverse ([NT] (human (3-actin [NT] (human (3-actin […]).

[2] = test system: GH3 cells stably expressing HER2CA; test: RIA of PRL and GH secretion in culture medium of GH3 stable transfectants; assay type: cell-based, rat; conditions: each respective transfectant (pcDNA3, HER2CA); 5 nM EGF or 6 nM HRG
Protocol: μM) for the indicated times, and Realtime PCR analysis performed. C. GH and PRL secretion in the culture medium determined by RIA. Hormone secretion levels were normalized for cell numbers, Values are mean±SEM. *p<0.05, **p<0.01.
GH3 rat lacto-somatotroph tumor cells secreting PRL and GH were purchased from the American Type Culture Collection. HER2CA cells were generated by transfection with pcDNA3-HER2CA (V654E) purchased from Addgene (Addgene plasmid 16259). Stable colonies were selected in the presence of 500 μg/ml G418 (Invitrogen). A vector control cell line pcDNA3 was simultaneously established by transfecting pcDNA3 that lacked inserted cDNA. After selection and propagation of stable transfectants, cells were cultured in DMEM/F12 medium containing 15% horse serum, 2.5% FBS, penicillin/streptomycin, and 500 μg/m G418. After synchronization by serum starvation (medium containing 0.2% bovine serum albumin for ˜24 h), cells with treatment agents was grown in fresh serum-depleted medium (0.2% bovine serum albumin), and samples collected at the indicated times.
RIAs for rat GH and PRL were performed in duplicate, using reagents provided by the National Hormone and Pituitary Program, National Institute of Diabetes and Digestive and Kidney Diseases (Harbor-UCLA Medical Center, Torrance, Calif., USA). Iodination of GH and PRL (5 μg) with iodine-125 (500 μCi) (PerkinElmer life & Analytical Sciences, Boston, Mass., USA) mixed with 0.1 mg Iodo-Gen (Pierce, Rockford, Ill.) was performed using 10-ml columns prepared by G-75 Sephadex (Sigma Chemical Co.). Low interspecies cross-reactivity of the GH and PRL assays were previously shown (8).

[3] = test system: GH3 cells stably expressing HER2CA; test: Soft agarose colony-forming assay, HER2CA transfectants; assay type: cell-based, rat; conditions: HER2CA transfectants, 10 d after seeding
Protocol: B. GH3 cells stably expressing HER2CA or pcDNA3 were plated (4,000 per well) in 96 well plates for the indicated times, and WST assay performed. C. […] Values are mean±SEM. *p<0.05, ** p<0.01, ^‡p<0.05 vs pcDNA3 control, ^†p<0.05 vs HER2CA control, ^‡‡p<0.05 vs pcDNA3 control, ^††p<0.05 vs HER2CA control.
Base layers consisting of growth medium containing 0.6% low-melting point agarose (Invitrogen) were poured onto 6-well plates and allowed to solidify. Cells (8×10^3 per well) were plated in triplicate in top layers consisting of growth medium containing 0.3% agarose. Seven to ten days later, cells were stained with 0.2% iodonitrotetrazolium chloride (Invitrogen), and colonies composed of 50 cells were counted manually in 5 randomly selected fields.

Compound | suppression of human PRL expression (human prolactinoma cells) | induction of PRL expression [1] | induction of PRL secretion [2] | enhancement of colony formation in soft agar [3]
N#CC(=C(/N)Sc1ccccc1N)/C(C#N)=C(\N)Sc1ccccc1N [U0126] | ~55% | – | – | –
EGF: epidermal growth factor, ErbB family receptor ligand, from Sigma (NSDSECPLSHDGYCLHDGVCMYIEALDKYACNCVVGYIGERCQYRDLKWWELR; Epidermal growth factor; UniProt P01133 971-1023, looked up) | – | approximately 2 fold | approximately 2 fold | ~8 fold
